Changes are numbered by the printed parent chain.
Tests used:
DC-SIGN ECD M270F = target: T1, DC-SIGN ECD M270F (Homo sapiens, UniProt Q9NNX6, M270F); test: Plate-based horseradish peroxidase assay; assay type: binding; conditions: 1 µg mL-1 HRP, 25 mM CaCl2
T1 construct: acids 64 -404 of DC -SIGN; made in house
T1 sequence (Q9NNX6 64-404 M270F): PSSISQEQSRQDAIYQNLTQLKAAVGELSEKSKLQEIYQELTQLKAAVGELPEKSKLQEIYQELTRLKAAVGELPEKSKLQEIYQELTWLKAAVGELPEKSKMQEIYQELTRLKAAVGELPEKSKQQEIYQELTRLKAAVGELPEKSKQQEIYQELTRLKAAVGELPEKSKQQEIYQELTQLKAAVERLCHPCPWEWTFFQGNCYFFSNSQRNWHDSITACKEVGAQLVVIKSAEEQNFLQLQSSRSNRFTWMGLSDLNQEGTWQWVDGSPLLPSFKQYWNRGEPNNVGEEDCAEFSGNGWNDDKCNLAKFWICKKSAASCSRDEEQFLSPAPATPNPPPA
Description: (§1) chromatography. Purified protein was dialyzed against 25 mM HEPES, 150 mM NaCl, 10 mM CaCl2, pH 7.4, concentrated using a centrifugal spin filter, snap frozen and then stored at -80°C. […]
(§2) Plate-based horseradish peroxidase assay
(§3) General remarks. Unless stated otherwise, all reagents and buffers were obtained from Sigma Aldrich or Carl Roth. Measurements were done on a Enspire Multimode Plate Reader (PerkinElmer). GraphPad Prism was used for all data processing and analysis.
(§4) CaCl2 titration. 100 µg mL-1 DC-SIGN ECD were immobilized in immobilization buffer (25 mM HEPES, 150 mM NaCl, 25 mM CaCl 2, pH 7.4) overnight at 4°C on transparent Nunc Maxisorp 96-well plates (Thermo Fisher). Protein solution was removed, and plates were washed three times with immobilization buffer and then blocked for 2 hours at 4°C with blocking buffer (25 mM HEPES, 150 mM NaCl, 25 mM CaCl 2, 2% BSA, 0.01% Tween -20). Plates were washed twice with 25 mM HEPES, 150 mM NaCl, 5 mM EDTA, pH 7.4 and twice with 25 mM HEPES, 150 mM NaCl, pH 7.4 to remove residual Ca 2+. To titrate Ca2+, CaCl2 in 25 mM HEPES, 150 mM NaCl, pH 7.4 was serially diluted on the plate at a constant HRP concentration of 1 µg mL-1 and then incubated at RT for 2 hours. Following incubation, plates were washed three times with 25 mM HEPES, 150 mM NaCl, pH 7.4 and bound HRP was detected using a TMB substrate kit (Thermo Fisher) and 0.18 M H2SO4 according to manufacturer’s instructions. Absorption was […]
(§5) HRP titration. Immobilization and blocking were done as described above. After blocking, plates were washed three times with immobilization buffer. HRP in immobilization buffer was serially diluted on the plate at a constant concentration CaCl2 concentration of 25 mM and then incubated […]
(§6) at RT for 2 hours. Following incubation, plates were washed three times with immobilization buffer and HRP was detected as described above.
(§7) Immobilization and blocking were done as described above. After blocking, plates were washed three times with immobilization buffer. Mannose in immobilization buffer containing 1 µg mL-1 HRP was serially diluted on the plate and then incubated at RT for 2 hours.
(§8) Following incubation, plates were washed three times with immobilization buffer and HRP was detected as described above.
(§9) All conditions were measured in technical triplicates, averaged and normalized to the control well […]
(§10) IC50 and EC50 values and hill […]
(§11) slopes (nH) were obtained in a four-parameter fit according to equation (1).
(§12) Y = bottom + top − bottom (1)
(§13) With bottom and top representing the minimal and maximal response plateaus, respectively, Y as the observed response and X the logarithmic concentration of the ligand . […]
(§14) Biosynth. Spectra were processed in TopSpin 4.2.0 and data analysis was performed using CCPN Analysis 3.2.0 for 2D spectra and in MestreNova for 1D spectra.2 Further analysis was done using GraphPad Prism and in-house python scripts.

DC-SIGN ECD wildtype = target: T2, DC-SIGN ECD wildtype (Homo sapiens, UniProt Q9NNX6); test: Plate-based horseradish peroxidase assay; assay type: binding; conditions: 1 µg mL-1 HRP, 25 mM CaCl2
T2 construct: acids 64 -404 of DC -SIGN; made in house
T2 sequence (Q9NNX6 64-404): T1 sequence (Q9NNX6 64-404 M270F) with F207M
Description: as §1, §2, §3, §4, §5, §6, §7, §8, §9, §10, §11, §12, §13, §14

[1] = read-out: IC50, inhibition of HRP binding

hill slope, inhibition of HRP binding (DC-SIGN ECD M270F): -1.5 | IC50 (DC-SIGN ECD M270F; [1]): 3100 µM | hill slope, inhibition of HRP binding (DC-SIGN ECD wildtype): -1.8 | IC50 (DC-SIGN ECD wildtype; [1]): 2300 µM
Structure (SMILES): OC[C@H]1OC(O)[C@@H](O)[C@@H](O)[C@@H]1O (stereo partly shown) [mannose]

Reference: paper PMC12933331, “A Cryptic Pocket Allosterically Modulates Oligosaccharide Binding to DC-SIGN” (JACS Au, 2026)
